Assay results: PubChem BioAssay (NCI)
“And” between values parts separate entries of the source, which are not always exact repeats. Equal values may be shown once.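 In this assay, cells in 96-well plates receive the compound at five concentrations for 48 hours. Endpoints are linearly interpolated between the surrounding concentrations. At the GI50, growth is halved. TGI is the concentration that stops growth completely.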

How the values were obtained:
Experiment in all cases: inhibition of tumour cell growth, NCI panel, 48 h
[1] = system: SN12C renal
[2] = system: SK-MEL-5 melanoma
[3] = system: OVCAR-3 ovarian
[4] = system: U251 CNS
[5] = system: A498 renal
[6] = system: HT29 colon
[7] = system: NCI-H460 lung
[8] = system: NCI-H226 lung
[9] = system: OVCAR-4 ovarian
[10] = system: UACC-62 melanoma

SMILES | GI50 [1] | TGI [1] | GI50 [2] | TGI [2] | GI50 [3] | TGI [3] | GI50 [4] | TGI [4] | GI50 [5] | TGI [5] | GI50 [6] | TGI [6] | GI50 [7] | TGI [7] | GI50 [8] | TGI [8] | GI50 [9] | TGI [9] | GI50 [10] | TGI [10]
OCc1ccc(-c2csc(-c3ccc(CO)o3)c2)o1 | 88.7 µM | > 100 µM | 17.5 µM | 41.5 µM | 5.86 µM | > 100 µM | 29.7 µM | > 100 µM | 0.018 µM | 0.0719 µM | 36.6 µM | > 100 µM | 9.75 µM | > 100 µM | 0.165 µM | 0.454 µM | 6.43 µM | > 100 µM | 0.767 µM | 33.7 µM
COc1cc2c(NCCCCCO)ncnc2c(OC)c1OC | – | > 100 µM | – | > 100 µM | – | > 100 µM | – | > 100 µM | – | > 100 µM | – | > 100 µM | – | > 100 µM | – | > 100 µM | – | > 100 µM | – | > 100 µM
O=C(Cn1c(C(=O)c2ccc(Cl)cc2)nc(-c2ccc(Cl)cc2)c1-c1ccc(Cl)cc1)c1ccccc1 | > 100 µM | > 100 µM | > 100 µM | > 100 µM | > 100 µM | > 100 µM | > 100 µM | > 100 µM | > 100 µM | > 100 µM | > 100 µM | > 100 µM | > 100 µM | > 100 µM | > 100 µM | > 100 µM | > 100 µM | > 100 µM | > 100 µM | > 100 µM
COC(=O)c1ccc2nc(-c3cc4ccccc4n3C)n(CCCCOc3cc4c(cc3OC)C(=O)N3CCC[C@H]3C=N4)c2c1 | 0.361 µM | 2.17 µM | 1.21 µM | 2.48 µM | 0.214 µM | 0.51 µM | 0.632 µM | 2.08 µM | 0.374 µM | 1.73 µM | 0.929 µM | 5.49 µM | 0.561 µM | 1.55 µM | 1.23 µM | 8.04 µM | 1.54 µM | 11.4 µM | 0.211 µM | 0.625 µM
CCc1ccccc1NC(=O)C(=O)C(C#N)c1ccccc1Cl (stereo not given) | – | > 100 µM | – | > 100 µM | – | > 100 µM | – | > 100 µM | – | > 100 µM | – | > 100 µM | – | 33.1 µM | – | > 100 µM | – | > 100 µM | – | > 100 µM
COc1ccc(Nc2nc3cc(C(F)(F)F)ccc3nc2-c2ccccc2)cc1OC | – | > 100 µM | – | > 100 µM | – | > 100 µM | – | > 100 µM | – | > 100 µM | – | > 100 µM | – | > 100 µM | – | 69.7 µM | – | > 100 µM | – | > 100 µM
Cc1cc(=O)[nH]c(CNC(=O)c2ccc3ccccc3c2)n1 | – | > 100 µM | – | > 100 µM | – | > 100 µM | – | > 100 µM | – | > 100 µM | – | > 100 µM | – | > 100 µM | – | > 100 µM | – | > 100 µM | – | > 100 µM
CCn1c(-c2nonc2N)nc2c(C#CC(C)(C)O)ncc(OC3CCNCC3)c21 | 9.21 µM | > 25 µM | > 20.1 µM | > 25 µM | 5.38 µM | 17.3 µM | 3.74 µM | > 25 µM | 0.0958 µM | 13.4 µM | 8.93 µM | > 25 µM | 6.86 µM | > 25 µM | 23.3 µM | > 25 µM | 14.1 µM | > 25 µM | 15.8 µM | > 25 µM
Fc1cc(F)c(F)c(S)c1F | – | 43.8 µM | – | > 100 µM | – | > 100 µM | – | > 100 µM | – | 33.2 µM | – | > 100 µM | – | > 100 µM | – | > 100 µM | – | > 100 µM | – | > 100 µM
Cn1cc(C2=C(c3c4n(c5ccccc35)CCNC4)C(=O)NC2=O)c2ccccc21 | 11.9 µM | > 25 µM | 4.82 µM | > 17.2 µM | 5.42 µM | > 21.7 µM | 9.23 µM | > 25 µM | 4.71 µM | 14.3 µM | 5.2 µM | > 25 µM | 10.6 µM | > 25 µM | 13.8 µM | > 25 µM | > 9.74 µM | > 25 µM | 7.63 µM | > 25 µM
CNC(=O)c1nn(C)c2c1C(C)(C)Cc1cnc(Nc3cccc(N4CCN(C)CC4)c3)nc1-2 | 0.323 µM | 31 µM | 0.954 µM | 5.46 µM | 0.505 µM | 13.4 µM | 0.291 µM | 12.8 µM | 0.0254 µM | 0.389 µM | 0.524 µM | > 35 µM | 0.303 µM | 11.8 µM | 0.237 µM | 9.96 µM | 0.409 µM | 44.3 µM | 0.369 µM | 11.6 µM
N#CC(C#N)=NNc1ccc2cn[nH]c2c1 | – | 92.3 µM | – | > 100 µM | – | 76.1 µM | – | > 100 µM | – | > 100 µM | – | > 100 µM | – | > 100 µM | – | > 100 µM | – | > 100 µM | – | > 100 µM
CC1=C/C=C/C(=O)O[C@@H]([C@H](C)[C@H](O)[C@@H](C)NC(=O)C(C)C)[C@H](C)/C=C/C(C)=C/[C@H]2C=CCC[C@@]2(C)\C=C\1 | 0.806 µM and 0.275 µM | 8.46 µM | 0.0634 µM and 0.0202 µM | 0.81 µM and 0.812 µM | 2.77 µM and 1.77 µM | 9.33 µM | 0.0759 µM and 0.0702 µM | 7.18 µM | 6.03 µM and 5.25 µM | 32.8 µM | 0.233 µM and 0.0595 µM | 6.85 µM | 0.526 µM and 0.287 µM | 26.4 µM | 2.48 µM and 0.582 µM | 10 µM | 6.47 µM | 21.9 µM | 0.418 µM and 0.62 µM | 8.98 µM
CNS(=O)(=O)OCC1OC(n2cnc3cncnc32)C(O)C1O (stereo not given) | > 100 µM | > 100 µM | > 100 µM | > 100 µM | > 100 µM | > 100 µM | > 100 µM | > 100 µM | > 100 µM | > 100 µM | > 100 µM | > 100 µM | > 100 µM | > 100 µM | > 100 µM | > 100 µM | > 100 µM | > 100 µM | > 100 µM | > 100 µM
COc1cc(OC)cc(Oc2cnc3cc(N)cc(N)c3n2)c1 | 15.8 µM | 29.3 µM | 15.3 µM | 29.3 µM | 1.83 µM | 10.5 µM | 15.5 µM | 28.8 µM | 11.8 µM | 39.9 µM | 13.3 µM | 30.6 µM | 19.4 µM | 41.2 µM | 17.1 µM | 38 µM | 9.07 µM | 21.8 µM | 14.4 µM | 27.8 µM
